Legend:
PC-3luc cells [1] = experiment: Xenogeneic orthotopic PC-3luc prostate tumor model in nude mice (bioluminescence, immunofluorescence); assay type: in vivo, Balb/c nu/nu mice; conditions: for distant metastases / carbachol-induced lymph node invasion: antagonist in combination with carbachol
Description: The microenvironment of a developing tumor is important in cancer development and metastasis. A xenogeneic orthotopic model of prostate cancer was established to provide a minimally disruptive microenvironment for this cancer in live mice.
In vivo and ex vivo bioluminescence imaging was performed and analyzed using an IVIS imaging system 200 series (Xenogen, Caliper Life Sciences, Hopkinton, Mass.). Bioluminescent signal was induced by i.p. injection of D-luciferin (150 mg/kg in PBS) 8 minutes prior to in vivo imaging. For ex vivo imaging, D-luciferin (300 mg/kg) was injected 7 minutes prior to necropsy. Organs of interest were immersed in a solution of D-luciferin at 150 mg/ml.
(§1) Upon sacrifice, mouse prostate tissues were immersed in OCT medium (Tissue Teck®). Five-micrometer frozen sections were stained with hematoxylin-eosin (H&E). For immunofluorescence, unstained prostate sections were fixed with acetone or methanol. For staining of nerves, fixed sections were incubated in H2O2 to quench endogenous peroxidase and non-specific binding was blocked with goat serum in bovine serum albumin (BSA) solution and the avidin/biotin blocking kit (Vector Laboratories, Burlingame, Calif.). Sections were incubated with a rabbit anti-TH antibody (Millipore, Billerica, Mass.), or anti-VAChT antibody (Phoenix Pharmaceuticals, Inc., Burlingame, Calif.), or anti-NF-L antibody (Millipore), or anti-NF-H antibody (Abcam, Cambridge, Mass.) and then with a secondary biotinylated goat anti-rabbit antibody (Vector Laboratories). Signal was amplified using the Vectastain Elite ABC Kit (Vector Laboratories) and visualized using the Tyramide Signal Amplification kit for TRITC (PerkinElmer, Boston, Mass.).
(§2) For proliferative cell quantification, sections were incubated with a rabbit polyclonal anti-Ki67 (Abcam) and then Alexafluor 568-conjugated goat anti-rabbit antibody (Molecular Probes, Carlsbad, Calif.).
(§3) Human tumors were induced by orthotopic surgical implantations of 1×10^5 PC-3luc cells into six- to eight-week-old Balb/c nu/nu mice. Ten days after cell injection (day 0), the animals were randomized into the different groups and received the appropriate drugs, as indicated. 6OHDA or vehicle was injected at day 0 (100 mg/kg) and day 2 (250 mg/kg), and human recombinant G-CSF treatment was begun on day 4 (Amgen, 250 μg/kg/day, every 12 hours, 8 divided doses, i.p., in 5% dextrose). A second cycle was administered eight weeks after graft and animals were sacrificed three weeks after the last injection of G-CSF (i.e., 11 weeks after graft). In other experiments, 2×10^5 PC-3luc cells were orthotopically injected into nu/nu Adrβ2^tm1Bkk/J+/+ Adrβ3^tm1Lowl/J+/+, nu/nu Adrβ2^tm1Bkk/J−/−, nu/nu Adrβ3^tm1Lowl/J−/− and nu/nu Adrβ2^tm1Bkk/J−/− Adrβ3^tm1Lowl/J−/−. In selected experiments, 2×10^6 LNCaP-luc cells were injected in nu/nu Adrβ2^tm1Bkk/J+/+ Adrβ3^tm1Lowl/J+/+ and nu/nu Adrβ2^tm1Bkk/J−/− Adrβ3^tm1Lowl/J−/− mice. For the transgenic model, one-, two- or five-month-old c-Myc mice were injected with 6OHDA or surgically sympathectomized according to protocols described above and sacrificed 30 days later.
A second cycle was administered at week four and mice were sacrificed one week later (five weeks after graft). For cholinergic experiments using the nu/nu Chrm1^tm1Stl+/+ and nu/nu Chrm1^tm1Stl−/− animals, mice were sacrificed at week six post-graft. For the survival study, grafted mice were treated as described hereinabove from week 4, every two weeks for up to 25 weeks or until death. Disease progression was monitored by bioluminescence scanner. […] One week later, mice received a second round of treatment and were then sacrificed at month four.

PC-3luc cells [2] = experiment: PC-3luc cell proliferation / cytotoxicity in vitro (MTT); assay type: cell-based, human
Description: A cell proliferation assay was performed on human PC-3 prostate tumor cells after 96 hours of treatment by G-CSF at three different concentrations by comparison with human leukemic cells (HL-60 and U937). Cell proliferation was quantified by a cell viability assay using MTT (3-[4,5-dimethylthiazole-2-yl]-2,5-diphenyltetrazolium bromide (Sigma). The percentage of viable cells was calculated by comparing the optical density (OD) of the treated samples with those incubated with vehicle. Methods were carried out as described by Magnon, et al., Cancer Res, 65, 4353-61 (2005); incorporated herein by reference in its entirety.

[3] = test system: prostate cancer in cMyc mice; experiment: cMyc transgenic mouse model of prostate cancer (mPIN, invasive cancer zones); assay type: in vivo
Description: To investigate further the activity of G-CSF on tumor development using a genetic mouse model, transgenic mice expressing human cMyc under the ARR2/probasin promoter expressed specifically in the prostate (hereafter cMyc mice) were evaluated. This transgenic model leads to the complete penetrance of mouse prostatic intraepithelial neoplasia (mPIN) from postnatal week 2, progressing to invasive adenocarcinomas between 3 to 6 months of age (FIG. 2m). […] The development of invasive cancer was associated with a broad infiltration of NF-L+ neo-fibers by comparison with control animals (FIG. 2o). Thus, the increased tumor/normal epithelial cell proliferation following G-CSF administration is associated with (i.e., is correlated to) the development of new nerve fibers in the primary tumor. Accordingly, a method of treating cancer in a subject such as a human patient or non-human animal (e.g., non-human mammal) comprises administering a prophylactically or therapeutically effective amount of an inhibitor of NF-L+ neo-fibers. In some embodiments, the method comprises administering a prophylactically or therapeutically effective amount of an inhibitor of G-CSF.
as §3
To ascertain the role of sympathetic innervation in tumor initiation using a genetic model, the effect of chemical or surgical sympathectomy on prostate cancer in cMyc mice was evaluated. For this study, transgenic cMyc mice expressing human c-Myc under the ARR2/probasin promoter expressed specifically in the prostate (AAR2/Pbsn-MYC) were used. This transgenic model leads to the complete penetrance of mouse prostatic intraepithelial neoplasia (mPIN) from postnatal week 2, progressing to invasive adenocarcinomas between 3 to 6 months of age (FIG. 6e). To this end, mice were chemically sympathectomized one month prior to histological analyses.
Disease progression was monitored by bioluminescence scanner. […] Mice were sacrificed at week 10.

healthy prostate = experiment: Healthy (tumor-free) prostate: nerve density, epithelial cell proliferation, apoptosis, Chrm1 expression; assay type: in vivo, mouse; conditions: 6OHDA; TUNEL
Description: as §1, §2
For apoptotic cell quantification, prostate sections were fixed with 4% paraformaldehyde (PFA) and stained with the Mebstain Apoptosis Kit according to manufacturer's recommendations (MBL International, Woburn, Mass.). Basement membranes were stained with a rat polyclonal anti-α2laminin antibody (Abcam) followed by Alexafluor647-conjugated goat anti-rat antibody (Molecular Probes).
Gene expression levels were analyzed from RNA extracted, using the TRIzol solution (Invitrogen, Carlsbad, Calif.), from PC-3, DU145, LNCaP cell lines or prostates from Balb/c nu/nu mice by quantitative real-time PCR, as described previously (Mendez-Ferrer, Nature, 452:442-447 (2008)).

[4] = Intravital microscopy hemodynamic measurements after carbachol; assay type: in vivo, mice
Description: Centerline red blood cell velocities were measured for 10 venules and 10 arterioles in two independent experiments. Wall shear rates (γ) were calculated based on Poiseuille's law for a Newtonian fluid, γ=2.12 (8Vmean)/Dv or Da, where Dv and Da are the venular or arterial diameters, the mean blood flow velocity (Vmean) was estimated as VRBC/1.6, and 2.12 is a median empirical mean, correction factor obtained from actual velocity profiles measured in microvessels in vivo. The blood flow rate was calculated from the formula: Vmean π D^2/4.

[5] = Echocardiography cardiac function after carbachol; assay type: in vivo; conditions: carbachol four consecutive days; n = 4 mice
Description: For imaging, animals were anesthetized with a mixture of O2/1.5% isoflurane and then positioned ventral side up on the platform of the imaging system. ECG signal and respiratory rate were captured through the electrode pads on the advanced physiological monitoring unit and transmitted to the Vevo system for monitoring. Cardiac examinations were performed in two dimensional images using the parasternal long axis (PLAX) view in B-Mode with a 1MS550D 40 MHz probe. Two cineloops (300 frames/cineloop) were recorded per animal and then analyzed on two diastoles and two systoles per animal. The endocardial stroke volume and endocardial diastolic volume were determined to calculate the ejection fraction.

[6] = one hour after carbachol injection, n = 10 vessels

NCCc1cc(O)c(O)cc1O [6OHDA, 6-hydroxydopamine]
TH+ neural fibers expressing NF-L (basal neural layer underneath prostate epithelium) (PC-3luc cells [1]; 6OHDA 100 and 250 mg/kg): specifically destroyed | NF-L and NF-H positive fibers (parasympathetic) surrounding epithelial cells (PC-3luc cells [1]; 6OHDA treatment): without affecting | metastases (PC-3luc cells [1]; 6OHDA-induced sympathectomy): did not yield any detectable metastases | development of the primary tumors (PC-3luc cells [1]; 6OHDA-induced sympathectomy, bioluminescence, TUNEL): dramatically prevented | direct cytotoxicity on tumor cells in vitro (PC-3luc cells [2]; 6OHDA, cultured PC-3luc cells): no direct cytotoxicity | percentage of mPIN ([3]; denervation at 1 month of age): significantly reduced | prevalence of mPIN and invasive cancer zones ([3]; sympathectomy two months or more after birth): not significantly altered | apoptosis of epithelial cells in the healthy prostate (healthy prostate): triggered in vivo apoptosis

C[N+](C)(C)CCOC(N)=O.[Cl-] [carbachol, carbamoylcholine chloride]
invasion of inguinal lymph nodes (PC-3luc cells [1]; carbachol alone, week 5): significantly enhanced | proliferation of PC-3luc cells orthotopically implanted into the prostate (Ki67) (PC-3luc cells [1]; carbachol injections): induced the proliferation | tumor cell dissemination to distant organs compared to the control group (PC-3luc cells [1]; carbachol, ex vivo bioluminescence): about 6 fold | primary tumors (ex vivo bioluminescence) (PC-3luc cells [1]; carbachol, five weeks post-grafting): depopulated | proliferation of PC-3luc cells in vitro (PC-3luc cells [2]; carbachol): did not induce any proliferation | incidence of mPIN ([3]; carbachol into three-month-old mice): significantly increased | transition of neoplastic lesions to invasive carcinoma ([3]; carbachol, four months of age): accelerated | vascular hemodynamics ([4]; carbachol-treated mice): not altered | Arterioles Blood Flow rate [4, 6]: 1737 ± 148 nL/s | Arterioles Diameter [4, 6]: 38.1 ±0.8 μm | Arterioles RBC velocity [4, 6]: 2.47 ± 0.22 mm/sec | Arterioles Wall shear rate (g) [4, 6]: 698 ± 69 | Venules Blood Flow rate [4, 6]: 863 ± 128 nL/s | Venules Diameter [4, 6]: 33.7 ± 1.3 μm | Venules RBC velocity [4, 6]: 1.48 ± 0.19 mm/sec | Venules Wall shear rate (g) [4, 6]: 469 ± 59 | Ejection fraction [5]: 65 ± 4% | Endocardial volume, diastole [5]: 34.4 ± 7.9 µL | Endocardial volume, systole [5]: 11.7 ± 3.0 µL

CN1CCN(CC(=O)N2c3ccccc3C(=O)Nc3cccnc32)CC1 [pirenzepine]
distant metastases (PC-3luc cells [1]): inhibited | carbachol-induced lymph node invasion (PC-3luc cells [1]; week 5): inhibited | carbachol-induced tumor cell proliferation (Ki67) (PC-3luc cells [1]; pirenzepine with carbachol): specifically blocked | carbachol-induced malignancy progression ([3]; pirenzepine with carbachol): completely inhibited

CN1[C@@H]2C[C@@H](OC(=O)[C@H](CO)c3ccccc3)C[C@H]1[C@@H]1O[C@@H]12 [scopolamine]
distant metastases (PC-3luc cells [1]): inhibited | carbachol-induced lymph node invasion (PC-3luc cells [1]; week 5): inhibited
